The values that follow are results of earlier work, collected in PMC9927415, “Tyrosine Kinase Inhibitors Display Potent Activity against Cryptosporidium parvum” (Microbiology Spectrum, 2022).

The data set concerns the target ROCK1. The arrangement: method as in earlier work. Particulars: previous study; read-out: Ki against ROCK1; cited from earlier work.

As to `c1ccc(COc2cccc(-c3ccnc4[nH]ccc34)c2)cc1` [Compound 9], the inhibition constant (Ki) is below 500 nM.

Broadly, the Ki is a measure of affinity in units of concentration, obtained from inhibition or displacement.
